Data as given in publication PMC4853715, “Design, Synthesis and Antitumor Activity of Novel link-bridge and B-Ring Modified Combretastatin A-4 (CA-4) Analogues as Potent Antitubulin Agents” (Scientific Reports, 2016).

Key:
A549 = assay: MTT assay, antiproliferative activity; type: cell-based; settings: Homo sapiens, 48 h, ± SD
Method: (§1) The in vitro anticancer activities of the prepared compounds against HepG2, Hela, MCF-7, A549, HT-29 and SSC-4 cell lines were evaluated as described in the literature. Target tumor cells were grown to log phase in DMEM medium supplemented with 10% fetal bovine serum. After reaching a dilution of 1 × 10^5 cells Ml^−1 with the medium, 100 μL of the obtained cell suspension was added to each well of 96-well culture plates. Subsequently, incubation was performed at 37 °C in 5% CO2 atmosphere for 12 h before the cytotoxicity assessment. Tested samples at preset concentrations were added to 6 wells with CA-4 being employed as a positive reference. After 48 h exposure period, 25 μL of PBS containing 2.5 mg mL^−1 of MTT (Sigma, USA) was added to each well. After 4 h, the medium was replaced by 150 μL DMSO to dissolve the purple formazan crystals produced. The absorbance at 570 nm of each well was measured with Synergy™ 2 Multi-Mode Microplate Reader. Cell viability (%) was calculated using the following equation: cell viability (%) = (Atreatment/Acontrol) × 100%. The data represented the mean of three independent experiments in triplicate and were expressed as means ± SD.

HT-29 = assay: MTT assay, antiproliferative activity; type: cell-based; settings: Homo sapiens; HT-29, MTT, 48 h, ± SD
Method: as §1

Hela = assay: MTT assay, antiproliferative activity; type: cell-based; settings: Homo sapiens, 48 h, ± SD
Method: as §1

HepG2 = assay: MTT assay, antiproliferative activity; type: cell-based; settings: Homo sapiens, 48 h, ± SD
Method: as §1

MCF-7 = assay: MTT assay, antiproliferative activity; type: cell-based; settings: Homo sapiens, MCF7; MCF-7, MTT, 48 h, ± SD
Method: as §1

SSC-4 = assay: MTT assay, antiproliferative activity; type: cell-based; settings: Homo sapiens; SSC-4, MTT, 48 h, ± SD
Method: as §1

Bovine brain tubulin = assay: Effects on tubulin polymerization (turbidimetric assembly); type: biochemical; settings: 10 μM tubulin, 30 °C, 20 min incubation; read-out: Tubulin inhibition IC50
Method: Bovine brain tubulin was purified as described previously. To evaluate the effect of the compounds on tubulin assembly in vitro, compounds of varying concentrations were preincubated with 10 μM tubulin in glutamate buffer at 30 °C and then cooled to 0 °C. After addition of GTP, the mixtures were transferred to 0 °C cuvettes in a recording BioTek Synergy 4 multifunction microplate spectrophotometer and warmed up to 30 °C and the assembly of tubulin was observed turbidimetrically (TU660, USA).

[1] = target: colchicine-binding site of tubulin; assay: [3H] Colchicine-tubulin binding assay; settings: 37 °C, 60 min; read-out: IC50, competition with [3H]colchicine binding to tubulin
Method: One micromolar radiolabeled colchicine [ring C, Methoxy-^3H] (Perkin-Elmer), 1% DMSO and various concentrations of test compounds in 50 μL G-PEM buffer containing 80 mmol/L PIPES (pH 6.8), 1 mmol/L EGTA, 1 mmol/L MgCl2 and 1 mmol/L GTP, and 5% glycerol were incubated with […] (>99% pure,; Cytoskeleton, Inc.; 0.2 mg/mL) at 37 °C for 60 min. The binding solutions were filtered through a stack of 2 DEAE-cellulose filters and washed twice. The radioactivity in the filtrates was determined by liquid scintillation spectrometry (Perkin-Elmer Wallac). Nonlinear regression was used to analyze the data using GraphPad Prism.

[2] = test system: Tubulin isolated from porcine brain tissue; assay: Tubulin polymerization assay (kit, absorbance 340 nm); type: biochemical; settings: 8.0 μM, 37 °C
Method: Tubulin polymerization was determined with the tubulin polymerization assay kit (Cytoskeleton, Denver, CO which was purchased from Cytoskeleton, Beyotime, China. Tubulin isolated from porcine brain tissue was used in this commercial kit.) It is based on the principal that light is scattered by microtubules to an extent that is proportional to the concentration of the microtubule polymer. Compounds that interact with tubulin will alter the polymerization of tubulin, and this can be detected using a spectrophotometer. Tubulin polymerization dynamics was monitored through measuring the change of absorbance at 340 nm every 2 min for 30 min at 37 °C on a spectrophotometer (Perkin-Elmer).

[3] = test system: polymerized tubulin in A549 cells; assay: Flow cytometry of extracellular polymerized tubulin; type: cell-based, human; settings: A549, 1 μM, 48 h
Method: Then, cells were harvested, washed once with PBS and blocked with 1% BSA for 30 min on ice, then were centrifuged (2800 rpm at 4 °C for 5 minutes) to remove supernatant. After that, cells were incubated with β-tubulin antibody (AT819, Beyotime, China) for 1 h on ice and were centrifuged (2800 rpm at 4 °C for 5 minutes) to remove supernatant. Next, cells were incubated with CY5.5-linked anti-rabbit IgG (A7016, Beyotime, China) on ice for 1 h and were also centrifuged (2800 rpm at 4 °C for 5 minutes) to remove supernatant. Finally, cells were then resuspended in PBS and the expression level of polymerized tubulin was analysed by flow cytometry (BD, USA).

[4] = test system: interphase microtubules of A549 cells; assay: Confocal microscopy assay of microtubule morphology; type: cell-based, human; settings: A549, 1.0 μM, 48 h
Method: After incubating for 48 h, A549 cells were washed with PBS for three times and fixed with 4% paraformaldehyde for 20 min, permeabilized with cold methanol for another 10 min. After that, the cells were blocked with 5% BSA for 1 h. Subsequently, the cells were washed with PBS, and incubated with anti-tubulin antibody in 3% BSA (1:200 Cytoskeleton, Inc.) overnight at 4 °C. After being washed with PBS for three times, each cover slip was added 200 μL of Cy3-labeled goat anti-mouse IgG (H + L) in 3% BSA (1:500, Cytoskeleton, Inc.) and incubated for 1 h at room temperature. At last, A549 cells was stained with 200 μL of DAPI for 5 min and observed under an confocal microscope (Olympus, USA).

A549 xenograft tumor = assay: In vivo anti-tumor activity, A549 xenograft; parameters: species or system BALB/c nude mice; settings: CA-4P group, 30 mg/kg or 15 mg/kg
Method: Mice were subcutaneously inoculated with injections of 5.0 × 10^6 cells/nude mice. After 12–14 days, tumor sizes were determined using micrometer calipers, and then nude mice with similar tumor volume (~100 mm^3, eliminate mice with tumors that are too large or too small) were randomly divided them into four groups (with six nude mice/group). […] Both drugs, as well as the vehicle control, were administered every other day for the entire period of observation.
Male BALB/c nude mice, five weeks old and weighing 18–22 g, were supplied by Shanghai Laboratory Animal Limited Company. The mice were raised in air-conditioned rooms under controlled lighting (12 h light-dark cycle at 24 °C) and were fed with standard laboratory food and water ad libitum. Before injection into the mice, the A549 cells were harvested by trypsinization and washed three times with cold serum-free medium and then injected in a total volume of 0.1 mL using a 1 mL latex-free syringe (BD) within 30 min of harvest. Mice were inoculated subcutaneously with A549 cells (5.0 × 10^6) on their shoulders. […] The control group received 0.9% normal saline. Tumor size was measured once every 2 days in two per-pendicular dimensions with Vernier calipers and converted to tumor volume (TV) using the formula: (ab^2)/2, where a and b refer to the longer and shorter dimensions, respectively. The body weight of the animals was measured twice a week to assess toxicity of the treatments at the same time as the tumor dimension measurement and the mortality was monitored daily. After the treatments for eight weeks, the animals were euthanized by cervical dislocation. This study conformed to the Guide for the Care and Use of Laboratory Animals as published by the US National Institutes of Health and was approved by the Institutional Ethics Review Board of Nanjing University.

SMILES	IC50 (A549) [µM]	IC50 (HT-29) [µM]	IC50 (Hela) [µM]	IC50 (HepG2) [µM]	IC50 (MCF-7) [µM]	IC50 (SSC-4) [µM]	IC50 (Bovine brain tubulin) [µM]	IC50 [1] [µM]	tubulin polymerization (in words) [2]	microtubule assembly (polymerized tubulin, curve shift versus control) [3]	microtubule morphology [4]	tumor growth reduction versus vehicle at end of observation (A549 xenograft tumor; every other day) [%]	average weight of the excised tumors (A549 xenograft tumor; control group 1.802 g) [g]
COc1ccc(/C=C\c2cc(OC)c(OC)c(OC)c2)cc1O [CA-4, combretastatin A-4]	0.13 ± 0.02	15.6 ± 0.06	5.52 ± 0.82	0.46 ± 0.07	0.81 ± 0.11	27.2 ± 1.78	[…]	4.96	nearly completely blocked	[…]	disorganized interphase microtubules	–	–
COc1ccc(/C=C\c2cc(OC)c(OC)c(OC)c2)cc1OP(=O)(O)O [CA-4P, fosbretabulin, reference compound]	–	–	–	–	–	–	–	–	–	–	–	39	1.102
COc1cc(/C=N/NC(=O)c2cn(C)c3ccccc23)cc(OC)c1OC [Compound 4]	0.29 ± 0.04	26.7 ± 1.89	8.45 ± 1.87	2.43 ± 0.23	3.21 ± 0.76	43.2 ± 3.98	14.8	–	–	–	–	–	–
CCn1cc(C(=O)N/N=C/c2cc(OC)c(OC)c(OC)c2)c2ccccc21 [Compound 5]	1.18 ± 0.11	56.8 ± 2.1	23.8 ± 2.23	10.6 ± 1.98	14.2 ± 1.11	55.2 ± 3.48	23.4	–	–	–	–	–	–
CCCn1cc(C(=O)N/N=C/c2cc(OC)c(OC)c(OC)c2)c2ccccc21 [Compound 6]	9.89 ± 1.16	70 ± 3.76	56.9 ± 4.89	39 ± 3.23	28.9 ± 3.23	79.9 ± 2.78	55.7	–	–	–	–	–	–
COc1cc(C(=O)/C=C\c2cn(C)c3ccccc23)cc(OC)c1OC [Compound 10]	12.1 ± 1.2	44.5 ± 2.87	23.9 ± 5.89	19.6 ± 1.98	29.9 ± 3.21	43.2 ± 3.3	49.9	–	–	–	–	–	–
CCn1cc(/C=C\C(=O)c2cc(OC)c(OC)c(OC)c2)c2ccccc21 [Compound 11]	27.9 ± 6.71	49.9 ± 6.98	34.2 ± 1.19	27.8 ± 2.23	45.5 ± 5.67	57.8 ± 4.67	125	–	–	–	–	–	–
CCCn1cc(/C=C\C(=O)c2cc(OC)c(OC)c(OC)c2)c2ccccc21 [Compound 12]	37.9 ± 3.61	78.9 ± 3.51	67.9 ± 4.47	53.9 ± 2.81	69.8 ± 5.43	90 ± 9.98	> 200	–	–	–	–	–	–
COc1cc(C(=O)/C=C\c2cn(Cc3ccccc3)c3ccccc23)cc(OC)c1OC [Compound 13]	2.78 ± 0.92	34.7 ± 5.34	4.78 ± 1.43	2.98 ± 0.34	4.54 ± 0.96	25.7 ± 2.78	24.8	–	–	–	–	–	–
COc1cc(NC(=O)c2cn(C)c3ccccc23)cc(OC)c1OC [Compound 16]	17.6 ± 1.9	46.4 ± 2.83	26.8 ± 6.81	17.5 ± 1.46	27.4 ± 2.41	45.5 ± 2.6	46.8	–	–	–	–	–	–
CCn1cc(C(=O)Nc2cc(OC)c(OC)c(OC)c2)c2ccccc21 [Compound 17]	26.5 ± 6.2	39.4 ± 3.45	35.7 ± 2.34	28.3 ± 3.33	48.3 ± 6.58	47.2 ± 4.33	> 200	–	–	–	–	–	–
CCCn1cc(C(=O)Nc2cc(OC)c(OC)c(OC)c2)c2ccccc21 [Compound 18]	40.2 ± 4.41	82.2 ± 3.7	77.4 ± 5.78	62.8 ± 3.65	59.8 ± 3.43	90.3 ± 6.76	> 200	–	–	–	–	–	–
COc1cc(NC(=O)c2cn(Cc3ccccc3)c3ccccc23)cc(OC)c1OC [Compound 19]	2.69 ± 0.4	32.7 ± 3.31	5.74 ± 1.06	3.68 ± 0.36	3.61 ± 0.46	29.5 ± 3.42	19.9	–	–	–	–	–	–
COc1cc2c(c(OC)c1OC)-c1ccc(OC)c(=O)cc1[C@@H](NC(C)=O)CC2 [colchicine]	–	–	–	–	–	–	–	–	–	–	depolymerization and solubilization	–	–
CC(=O)O[C@H]1C(=O)[C@@]2(C)[C@H]([C@H](OC(=O)c3ccccc3)[C@]3(O)C[C@H](OC(=O)[C@H](O)[C@@H](NC(=O)c4ccccc4)c4ccccc4)C(C)=C1C3(C)C)[C@]1(OC(C)=O)CO[C@@H]1C[C@@H]2O [paclitaxel]	–	–	–	–	–	–	–	–	–	–	substantial stabilization of microtubules	–	–
